In the data set the test system is CHIKV. Format: cell-based, chikungunya virus.
“Hs_EIF2B5_1 (CTTGTATATGTTAATATTAAA; chemistry not given here)” came in with a Score_si4 of 1.02.
“Hs_SLC6A19_2 (sense CTCGGTGATTGTGTCCATCAT; chemistry not given here)”: the Score_si1 was determined as 2.5.
In turn, “s26872 (sense GGGTTGACCTCATCCTCGA; chemistry not given here)” registered a Score_si4 of 1.69.
As for “Hs_SEC61B_2 (sense CCCAACATTTCTTGGACCAAA; chemistry not given here)”, the Score_si3 came to 1.09.
“s11745 (sense CACTCTCTGTAAGCATATA; chemistry not given here)” yielded a Score_si2 of 1.42.
“Hs_PRSS15_4 (sense CCGGGACATCATTGCCTTGAA; chemistry not given here)” yielded a Score_si1 of 1.74.
“Hs_THRAP6_6 (sense CTGAGATTGGTATATGACAAA; chemistry not given here) [reference compound]” had a Score_si1 of -1.48.
“s18906 (sense GAAGGAATTTCATTTGACA; chemistry not given here)”: the Score_si3 was 1.68.
Substance “Hs_IQGAP1_1 (sense CTGGGAGATAATGCCCACTTA; chemistry not given here)” had a Score_si2 of 1.04.
Take “Hs_SULF1_4 (sense AGCATGGATTTGATTATGCAA; chemistry not given here) [reference compound]”: the Score_si2 is listed as -1.41.
Still for that read-out and setting: under “Hs_FTSJ2_1 (sense CAGAGGAATTCCAGAATGTAA; chemistry not given here)” stands 1.91.
As to “Hs_BRD8_1 (TGCAATGACATTGCAACGAAA; chemistry not given here)”, the Score_si4 stood at 0.57.
Same read-out and setting: under “s25038 (sense GGTCTTTACTAGGTGTATT; chemistry not given here) [reference compound]” stands -0.18.
“Hs_DKFZP434B168_1 (CTGAAATTACTTGCTAATAAA; chemistry not given here)” showed a Score_si3 of 1.61.
The same measure, in the same setting: in the case of “s31789 (AGGACATTATCAACCCGGA; chemistry not given here)” it was 1.5.
For “Hs_PRSS15_3 (sense TAGAAGCTATTTAATGATTAA; chemistry not given here)”, the Score_si4 stood at 1.21.
The substance “Hs_LRP6_2 (CTGGATTGTTATCCGACTGAA; chemistry not given here)” had a Score_si2 of 1.63.
The same measure, in the same setting: in the case of “s17019 (CCACGTGATAAATCAAGAA; chemistry not given here)” it was 1.29.
On to “s1698 (CGAACTACACCTTCAGCTA; chemistry not given here) [reference compound]”, for which the Score_si3 was -0.99.
In the case of “s8290 (sense GGTGCTAACCGGATAGTAT; chemistry not given here)”, the Score_si4 was 0.74.
Same read-out and setting: in the case of “Hs_LOXL2_4 (sense CTCGAGATTCCGGAAAGCATA; chemistry not given here)” it was 0.97.
As to “Hs_FLT4_4 (sense CGCGCTGATGTCGGAGCTCAA; chemistry not given here)”, the Score_si1 came to 1.18.
Same read-out and setting: under “s31660 (CTGTCACACTCACTGAAAA; chemistry not given here)” stands 1.8.
In the case of “s21624 (sense GGTGTAACCGATTCACTAT; chemistry not given here)”, the Score_si3 amounted to 0.86.
Same read-out and setting: in the case of “Hs_GFRA4_4 (sense CAGGAGGCATCTTGGTTGTAA; chemistry not given here)” it was 1.57.
Substance “s5031 (sense CCGTGGACCTGATCATCAA; chemistry not given here)” yielded a Score_si2 of 2.04.
Substance “s10955 (sense GAGAAGAAGTATTACTTAT; chemistry not given here)” yielded a Score_si4 of 0.29.
Still for that read-out and setting: in the case of “s6670 (sense CAACAGGAGGAAGACTTTA; chemistry not given here)” it was -0.15; in that of “s34429 (CTCCTGCCTTGAGCCCTTA; chemistry not given here)”, 0.3.
